Measured values published in ChEMBL document CHEMBL4393656, “Cationic biaryl 1,2,3-triazolyl peptidomimetic amphiphiles targeting Clostridioides (Clostridium) difficile: Synthesis, antibacterial evaluation and an in vivo C. difficile infection model” (Eur J Med Chem, 2019).

Key:
[1] = test system: Staphylococcus aureus; assay: Growth inhibition of methicillin-resistant Staphylococcus aureus ATCC 43300 incubated for 18 hrs; format: organism-based
[2] = Cytotoxicity against HEK293 cells assessed as decrease in cell viability after 20 hrs by resazurin dye-based fluorescence assay; settings: human
[3] = test system: Escherichia coli; assay: Growth inhibition of Escherichia coli ATCC 25922 incubated for 18 hrs; format: organism-based
[4] = Haemolytic activity in sheep erythrocytes assessed as induction of haemolysis at 5 ug/ml incubated for 2 hrs relative to control; format: cell-based, Ovis aries, Erythrocyte; settings: read-out: Activity
[5] = test system: Acinetobacter baumannii; assay: Growth inhibition of Acinetobacter baumannii ATCC 19606 incubated for 18 hrs without shaking by absorbance based monochromator plate reader analysis; format: organism-based, ATCC 19606 = CIP 70.34 = JCM 6841; settings: in vitro
[6] = test system: Clostridioides difficile; assay: Antibacterial activity against Clostridium difficile NSW132 RT027 incubated for 2 to 4 hrs in pre-reduced brucella broth supplemented with haemin/vitamin K and further incubation in anaerobic condition for 48 hrs; format: functional
[7] = test system: Enterococcus faecalis; assay: Growth inhibition of Enterococcus faecalis ATCC 29212 incubated in MHB broth for 24 hrs; format: organism-based
[8] = test system: Streptococcus pneumoniae; assay: Growth inhibition of Streptococcus pneumoniae ATCC 49619 incubated in MHB medium with lysed horse blood and 5% CO2 for 24 hrs; format: organism-based
[9] = Haemolytic activity in sheep erythrocytes assessed as induction of haemolysis at 50 ug/ml incubated for 2 hrs relative to control; format: cell-based, Ovis aries, Erythrocyte; settings: read-out: Activity
[10] = test system: Clostridioides difficile; assay: Antibacterial activity against Clostridium difficile ATCC 700057 incubated for 2 to 4 hrs in pre-reduced brucella broth supplemented with haemin/vitamin K and further incubation in anaerobic condition for 48 hrs; format: functional
[11] = test system: Pseudomonas aeruginosa; assay: Growth inhibition of Pseudomonas aeruginosa ATCC 27853 incubated for 18 hrs; format: organism-based
[12] = test system: Staphylococcus aureus; assay: Growth inhibition of Staphylococcus aureus ATCC 29213 incubated in MHB broth for 24 hrs; format: organism-based
[13] = test system: Klebsiella pneumoniae; assay: Growth inhibition of Klebsiella pneumoniae ATCC 700603 incubated for 18 hrs; format: organism-based
[14] = test system: Staphylococcus aureus; assay: Growth inhibition of methicillin resistant Staphylococcus aureus NCTC 10442 incubated in MHB medium for 24 hrs; format: organism-based

Compound `CC(C)CCOc1ccc2ccccc2c1-c1c(OCc2cn([C@H](CCCCN)C(=O)N[C@H](CCCNC(=N)N)Cn3cc(CCc4ccccc4)nn3)nn2)ccc2ccccc12.Cl.Cl` has an MIC [1] of 2 µg/mL, a CC50 at 20 h [2] of over 32 µg/mL and an MIC [3] of over 32 µg/mL. It also gave a hemolysis at 2 h, 5 ug/ml [4] of 1.5%, an MIC [5] of 8 µg/mL and an MIC [6] of 16 µg/mL. For the same compound, the MIC [7] was 4 µg/mL, the MIC [8] was 4 µg/mL and the hemolysis at 2 h, 50 ug/ml [9] was 75.2%. It also gave an MIC [10] of 16 µg/mL, an MIC [11] of 16 µg/mL and an MIC [12] of 4 µg/mL. For the same compound, the MIC [13] was over 32 µg/mL.
`CC(C)CCOc1ccc2ccccc2c1-c1c(OCc2cn([C@H](CCCNC(=N)N)C(=O)NCc3ccccc3)nn2)ccc2ccccc12.Cl` gave an MIC [1] of 8 µg/mL, a CC50 at 20 h [2] of 16.5 µg/mL and an MIC [3] of over 32 µg/mL. The MIC [5] was over 32 µg/mL, the MIC [6] was 16 µg/mL and the MIC [7] was 2 µg/mL. It also gave an MIC [8] of 8 µg/mL, an MIC [10] of 16 µg/mL and an MIC [11] of over 32 µg/mL. For the same compound, the MIC [12] was 4 µg/mL, the MIC [14] was 8 µg/mL and the MIC [13] was over 32 µg/mL.
`CC(C)CCOc1ccccc1-c1ccccc1OCc1cn([C@H](CCCNC(=N)N)C(=O)NCc2ccccc2)nn1.Cl` showed an MIC [1] of 8 µg/mL, a CC50 at 20 h [2] of 16.8 µg/mL and an MIC [3] of over 32 µg/mL. The MIC [5] was 32 µg/mL, the MIC [6] was 64 µg/mL and the MIC [7] was 8 µg/mL. It also gave an MIC [8] of 4 µg/mL, an MIC [10] of 32 µg/mL and an MIC [11] of over 32 µg/mL. The MIC [12] was 4 µg/mL, the MIC [14] was 8 µg/mL and the MIC [13] was over 32 µg/mL.
Work on `CC(C)CCOc1ccc2ccccc2c1-c1c(OCc2cn([C@H](CCCNC(=N)N)C(=O)NCCc3ccccc3)nn2)ccc2ccccc12.Cl` yielded an MIC [1] of 8 µg/mL, a CC50 at 20 h [2] of over 32 µg/mL and an MIC [3] of over 32 µg/mL. The hemolysis at 2 h, 5 ug/ml [4] was 0.1%, the MIC [5] was over 32 µg/mL and the MIC [6] was 64 µg/mL. It also gave an MIC [7] of 4 µg/mL, an MIC [8] of 16 µg/mL and a hemolysis at 2 h, 50 ug/ml [9] of 55.2%. For the same compound, the MIC [10] was 16 µg/mL, the MIC [11] was over 32 µg/mL and the MIC [12] was 8 µg/mL. For the same compound, the MIC [13] was over 32 µg/mL.
`CC(C)CCOc1ccccc1-c1ccccc1OCc1cn([C@H](CCCNC(=N)N)C(=O)Nc2cccc(F)c2)nn1.Cl` gave an MIC [1] of 4 µg/mL, a CC50 at 20 h [2] of over 32 µg/mL and an MIC [3] of over 32 µg/mL. For the same compound, the MIC [5] was over 32 µg/mL, the MIC [6] was 64 µg/mL and the MIC [7] was 8 µg/mL. It also gave an MIC [8] of 8 µg/mL, an MIC [10] of 32 µg/mL and an MIC [11] of over 32 µg/mL. For the same compound, the MIC [12] was 4 µg/mL, the MIC [14] was 8 µg/mL and the MIC [13] was over 32 µg/mL.
`CC(C)CCOc1ccc2ccccc2c1-c1c(OCc2cn([C@H](CCCNC(=N)N)C(=O)N[C@H](CCCCN)Cn3cc(CC4CCCCC4)nn3)nn2)ccc2ccccc12.Cl.Cl` showed a CC50 at 20 h [2] of over 32 µg/mL, an MIC [3] of over 32 µg/mL and a hemolysis at 2 h, 5 ug/ml [4] of 1.8%. The MIC [5] was 32 µg/mL, the MIC [6] was 8 µg/mL and the MIC [7] was 4 µg/mL. The MIC [8] was 2 µg/mL, the hemolysis at 2 h, 50 ug/ml [9] was 71.5% and the MIC [10] was 8 µg/mL. For the same compound, the MIC [11] was 32 µg/mL, the MIC [12] was 4 µg/mL and the MIC [13] was over 32 µg/mL.
`CC(C)CCOc1ccccc1-c1ccccc1OCc1cn([C@H](CCCNC(=N)N)C(=O)N[C@H](CCCCN)Cn2cc(CCc3ccccc3)nn2)nn1.Cl.Cl` showed an MIC [1] of 4 µg/mL, a CC50 at 20 h [2] of over 32 µg/mL and an MIC [3] of 16 µg/mL. It also gave an MIC [5] of 32 µg/mL, an MIC [6] of 16 µg/mL and an MIC [7] of 8 µg/mL. For the same compound, the MIC [8] was 2 µg/mL, the MIC [10] was 16 µg/mL and the MIC [11] was 16 µg/mL. It also gave an MIC [12] of 4 µg/mL, an MIC [14] of 8 µg/mL and an MIC [13] of 16 µg/mL.
`CC(C)CCOc1ccccc1-c1ccccc1OCc1cn([C@H](CCCCN)C(=O)NCCc2ccc(F)cc2)nn1.Cl` gave an MIC [1] of 8 µg/mL, a CC50 at 20 h [2] of 5.5 µg/mL and an MIC [3] of over 32 µg/mL. The MIC [5] was 16 µg/mL, the MIC [6] was 64 µg/mL and the MIC [7] was 8 µg/mL. For the same compound, the MIC [8] was 8 µg/mL, the MIC [10] was 32 µg/mL and the MIC [11] was over 32 µg/mL. For the same compound, the MIC [12] was 4 µg/mL, the MIC [14] was 8 µg/mL and the MIC [13] was over 32 µg/mL.
